Data as given in patent US20090062369A1, “USE OF SECRETORY PHOSPHOLIPASE A2 (SPLA2) INHIBITORS TO DECREASE SPLA2 LEVELS” (priority 2007, published 2009).

System: serum sPLA2
Experiment: Effect of twice-a-day oral A-002 on serum sPLA2 levels in subjects with stable coronary artery disease (Example 6)
Type: in vivo, human
Procedure: The protocol for preparing standard curve, test, and quality control samples for use in the assay disclosed herein is set forth in Example 5. Samples are prepared according to this protocol, then loaded in duplicate onto a plate (Cayman catalog no. 485002 or equivalent) that has been pre-coated with a monoclonal sPLA2 antibody (“capture antibody”) that specifically binds sPLA2. In certain embodiments, the capture antibody may interact with a specific form of sPLA2, such as for example sPLA2 type IIA.
sPLA2 acetylcholinesterase:Fab′ conjugate (AChE:Fab′) (“conjugate”) (Cayman catalog no. 485000 or equivalent) is reconstituted in EIA buffer (Cayman catalog no. 400060 or equivalent). Cayman EIA buffer is 1M phosphate, pH 7.0, 1% BSA, 4M NaCl, 10 mM EDTA, and 0.1% sodium azide. Reconstituted conjugate is added to each well of the plate. The conjugate binds a different sPLA2 epitope than the capture antibody, allowing the capture antibody and the conjugate to form a “sandwich” that is immobilized on the plate. Excess reagents are washed away, and the plate is covered and incubated overnight at 2-8° C.
Prior to development, the wells are washed five to six times with wash buffer (Cayman catalog no. 400062 or equivalent). To develop the plate, Ellman's Reagent (Cayman catalog no. 400050 or equivalent) is reconstituted in water and added to each well according to manufacturer instructions. The reconstituted Ellman's Reagent must be used the same day it is prepared because it is unstable. Ellman's Reagent contains an AChE substrate. Specifically, Ellman's Reagent contains acetylthiocholine and 5,5′-dithio-bis-(2-nitrobenzoic acid). Hydrolysis of acetylthiocholine by acetylcholinesterase produces thiocholine, which reacts with 5,5′-dithio-bis-(2-nitrobenzoic acid) to produce 5-thio-2-nitrobenzoic acid. 5-thio-2-nitrobenzoic acid has a strong absorbance at 412 nm. The intensity of absorbance at this wavelength is directly proportional to the concentration of bound conjugate, which is in turn is directly proportional to the concentration of sPLA2 present (Absorbance a [AChE:Fab′ conjugate] α [sPLA2]). During the development step, the plate is shaken, preferably in the dark. In certain embodiments the development time for the assay is 0.5 to 3 hours, preferably 1 to 1.5 hours. At the end of the development period, the high sPLA2 standards should have greater yellow color development than the zero standards. Absorbance of each well is measured at 400-420 nm using a micro-well plate reader. In certain embodiments, absorbance is measured at about 405 nm.
Absorbance readings for duplicate wells are averaged, and the relative standard deviation and % CV are calculated. Standard curve data are used to generate a four parameter curve, and quality control and test samples are measured against the appropriate standard curve (i.e., the standard curve with the same serum content). In order for a test to be considered valid, variation between duplicate wells should be no more than about 25%, and negative controls (blanks) for each standard curve should have a mean absorbance of less than about 0.3.
The method disclosed herein for measuring sPLA2 levels in serum was utilized to determine the effect of administering certain sPLA2 inhibitors on sPLA2 levels in 84 human subjects. The subjects included 24 subjects with diabetes, 32 subjects with metabolic syndrome, and 75 subjects receiving statin treatment. Subjects were administered the sPLA2 inhibitor A-002, a prodrug form of A-001, twice a day at varying dosages from 50 to 500 mg. The structures of A-002and A-001 are set forth below. At two weeks and four weeks after the first administration, sPLA2 levels were measured and compared to pre-administration baseline levels.
84 subjects with stable coronary artery disease were randomized to receive placebo or A-002 via oral administration twice a day over a four week administration period. […]

[1] = 50 mg, diabetes subgroup of ITT population
[2] = 50 mg, non-diabetes subgroup of ITT population
[3] = 50 mg, statin subgroup of ITT population
[4] = 100 mg, diabetes subgroup of ITT population
[5] = 100 mg, non-diabetes subgroup of ITT population
[6] = 100 mg, statin subgroup of ITT population

CCc1c(C(=O)C(N)=O)c2c(OCC(=O)OC)cccc2n1Cc1ccccc1 [A-002, [[3-(2-Amino-1,2-dioxoethyl)-2-ethyl-1-(phenylmethyl)-1H-indol-4-yl]oxy]acetic acid methyl ester]
sPLA2 Change from baseline at week 2, Mean (50 mg, ITT population): -2.74 ng/mL | sPLA2 Change from baseline at week 2, Median (50 mg, ITT population): -2.60 ng/mL | sPLA2 Change from baseline at week 2, Range (50 mg, ITT population): -5.30 to -0.60 ng/mL | sPLA2 Change from baseline at week 4, Mean (50 mg, ITT population): -2.50 ng/mL | sPLA2 Change from baseline at week 4, Median (50 mg, ITT population): -2.15 ng/mL | sPLA2 Change from baseline at week 4, Range (50 mg, ITT population): -6.40 to -0.60 ng/mL | sPLA2 level, Baseline, Mean (50 mg, ITT population): 3.24 ng/mL | sPLA2 level, Baseline, Median (50 mg, ITT population): 2.65 ng/mL | sPLA2 level, Baseline, Range (50 mg, ITT population): 0.80 to 8.80 ng/mL | sPLA2 level, Week 2, Mean (50 mg, ITT population): 0.89 ng/mL | sPLA2 level, Week 2, Median (50 mg, ITT population): 0.45 ng/mL | sPLA2 level, Week 2, Range (50 mg, ITT population): 0.20 to 4.00 ng/mL | sPLA2 level, Week 4, Mean (50 mg, ITT population): 0.85 ng/mL | sPLA2 level, Week 4, Median (50 mg, ITT population): 0.70 ng/mL | sPLA2 level, Week 4, Range (50 mg, ITT population): 0.10 to 2.40 ng/mL | sPLA2 Change from baseline at week 2, Mean [1]: -2.05 ng/mL | sPLA2 Change from baseline at week 2, Median [1]: -2.45 ng/mL | sPLA2 Change from baseline at week 2, Range [1]: -2.70 to -0.60 ng/mL | sPLA2 Change from baseline at week 4, Mean [1]: -1.76 ng/mL | sPLA2 Change from baseline at week 4, Median [1]: -1.50 ng/mL | sPLA2 Change from baseline at week 4, Range [1]: -3.20 to -0.60 ng/mL | sPLA2 level, Baseline, Mean [1]: 2.45 ng/mL | sPLA2 level, Baseline, Median [1]: 2.65 ng/mL | sPLA2 level, Baseline, Range [1]: 0.80 to 3.80 ng/mL | sPLA2 level, Week 2, Mean [1]: 0.55 ng/mL | sPLA2 level, Week 2, Median [1]: 0.45 ng/mL | sPLA2 level, Week 2, Range [1]: 0.20 to 1.10 ng/mL | sPLA2 level, Week 4, Mean [1]: 0.66 ng/mL | sPLA2 level, Week 4, Median [1]: 0.60 ng/mL | sPLA2 level, Week 4, Range [1]: 0.20 to 1.20 ng/mL | sPLA2 Change from baseline at week 2, Mean [2]: -3.09 ng/mL | sPLA2 Change from baseline at week 2, Median [2]: -3.05 ng/mL | sPLA2 Change from baseline at week 2, Range [2]: -5.30 to -0.70 ng/mL | sPLA2 Change from baseline at week 4, Mean [2]: -3.03 ng/mL | sPLA2 Change from baseline at week 4, Median [2]: -2.80 ng/mL | sPLA2 Change from baseline at week 4, Range [2]: -6.40 to -0.80 ng/mL | sPLA2 level, Baseline, Mean [2]: 3.72 ng/mL | sPLA2 level, Baseline, Median [2]: 3.20 ng/mL | sPLA2 level, Baseline, Range [2]: 1.30 to 8.80 ng/mL | sPLA2 level, Week 2, Mean [2]: 1.06 ng/mL | sPLA2 level, Week 2, Median [2]: 0.06 ng/mL | sPLA2 level, Week 2, Range [2]: 0.20 to 4.00 ng/mL | sPLA2 level, Week 4, Mean [2]: 0.96 ng/mL | sPLA2 level, Week 4, Median [2]: 0.75 ng/mL | sPLA2 level, Week 4, Range [2]: 0.10 to 2.40 ng/mL | sPLA2 Change from baseline at week 2, Mean [3]: -2.74 ng/mL | sPLA2 Change from baseline at week 2, Median [3]: -2.60 ng/mL | sPLA2 Change from baseline at week 2, Range [3]: -5.30 to -0.60 ng/mL | sPLA2 Change from baseline at week 4, Mean [3]: -2.50 ng/mL | sPLA2 Change from baseline at week 4, Median [3]: -2.15 ng/mL | sPLA2 Change from baseline at week 4, Range [3]: -6.40 to -0.60 ng/mL | sPLA2 level, Baseline, Mean [3]: 3.34 ng/mL | sPLA2 level, Baseline, Median [3]: 2.70 ng/mL | sPLA2 level, Baseline, Range [3]: 0.80 to 8.80 ng/mL | sPLA2 level, Week 2, Mean [3]: 0.89 ng/mL | sPLA2 level, Week 2, Median [3]: 0.45 ng/mL | sPLA2 level, Week 2, Range [3]: 0.20 to 4.00 ng/mL | sPLA2 level, Week 4, Mean [3]: 0.85 ng/mL | sPLA2 level, Week 4, Median [3]: 0.70 ng/mL | sPLA2 level, Week 4, Range [3]: 0.10 to 2.40 ng/mL | sPLA2 Change from baseline at week 2, Mean (100 mg, ITT population): -1.81 ng/mL | sPLA2 Change from baseline at week 2, Median (100 mg, ITT population): -1.85 ng/mL | sPLA2 Change from baseline at week 2, Range (100 mg, ITT population): −3.70 to +2.85 ng/ml | sPLA2 Change from baseline at week 4, Mean (100 mg, ITT population): -2.55 ng/mL | sPLA2 Change from baseline at week 4, Median (100 mg, ITT population): -2.50 ng/mL | sPLA2 Change from baseline at week 4, Range (100 mg, ITT population): -5.70 to 0.00 ng/mL | sPLA2 level, Baseline, Mean (100 mg, ITT population): 2.86 ng/mL | sPLA2 level, Baseline, Median (100 mg, ITT population): 2.95 ng/mL | sPLA2 level, Baseline, Range (100 mg, ITT population): 0.05 to 6.00 ng/mL | sPLA2 level, Week 2, Mean (100 mg, ITT population): 0.68 ng/mL | sPLA2 level, Week 2, Median (100 mg, ITT population): 0.45 ng/mL | sPLA2 level, Week 2, Range (100 mg, ITT population): 0.05 to 2.90 ng/mL | sPLA2 level, Week 4, Mean (100 mg, ITT population): 0.49 ng/mL | sPLA2 level, Week 4, Median (100 mg, ITT population): 0.50 ng/mL | sPLA2 level, Week 4, Range (100 mg, ITT population): 0.05 to 1.10 ng/mL | sPLA2 Change from baseline at week 2, Mean [4]: -1.11 ng/mL | sPLA2 Change from baseline at week 2, Median [4]: -1.80 ng/mL | sPLA2 Change from baseline at week 2, Range [4]: −3.00 to +2.85 ng/ml | sPLA2 Change from baseline at week 4, Mean [4]: -2.30 ng/mL | sPLA2 Change from baseline at week 4, Median [4]: -1.80 ng/mL | sPLA2 Change from baseline at week 4, Range [4]: -5.70 to 0.00 ng/mL | sPLA2 level, Baseline, Mean [4]: 2.78 ng/mL | sPLA2 level, Baseline, Median [4]: 2.50 ng/mL | sPLA2 level, Baseline, Range [4]: 0.05 to 6.00 ng/mL | sPLA2 level, Week 2, Mean [4]: 1.02 ng/mL | sPLA2 level, Week 2, Median [4]: 0.50 ng/mL | sPLA2 level, Week 2, Range [4]: 0.40 to 2.90 ng/mL | sPLA2 level, Week 4, Mean [4]: 0.48 ng/mL | sPLA2 level, Week 4, Median [4]: 0.40 ng/mL | sPLA2 level, Week 4, Range [4]: 0.05 to 1.10 ng/mL | sPLA2 Change from baseline at week 2, Mean [5]: -2.21 ng/mL | sPLA2 Change from baseline at week 2, Median [5]: -2.40 ng/mL | sPLA2 Change from baseline at week 2, Range [5]: -3.70 to -0.40 ng/mL | sPLA2 Change from baseline at week 4, Mean [5]: -2.76 ng/mL | sPLA2 Change from baseline at week 4, Median [5]: -2.60 ng/mL | sPLA2 Change from baseline at week 4, Range [5]: -4.40 to -0.90 ng/mL | sPLA2 level, Baseline, Mean [5]: 2.91 ng/mL | sPLA2 level, Baseline, Median [5]: 3.20 ng/mL | sPLA2 level, Baseline, Range [5]: 1.00 to 4.90 ng/mL | sPLA2 level, Week 2, Mean [5]: 0.48 ng/mL | sPLA2 level, Week 2, Median [5]: 0.30 ng/mL | sPLA2 level, Week 2, Range [5]: 0.05 to 1.20 ng/mL | sPLA2 level, Week 4, Mean [5]: 0.51 ng/mL | sPLA2 level, Week 4, Median [5]: 0.60 ng/mL | sPLA2 level, Week 4, Range [5]: 0.05 to 1.00 ng/mL | sPLA2 Change from baseline at week 2, Mean [6]: -1.81 ng/mL | sPLA2 Change from baseline at week 2, Median [6]: -1.80 ng/mL | sPLA2 Change from baseline at week 2, Range [6]: −3.70 to +2.85 ng/ml | sPLA2 Change from baseline at week 4, Mean [6]: -2.46 ng/mL | sPLA2 Change from baseline at week 4, Median [6]: -2.50 ng/mL
